Test results: patent US8008258B2, “Cop 1 for treatment of inflammatory bowel diseases” (Yeda Research and Development Co. Ltd., priority 2003, dated 2011)
Marks after values point to notes of the source that are not given here.

Legend:
TNBS-induced colitis = TNBS-induced colitis in (SJL/JxBALB/c)F1 mice, various GA treatment modes; format: in vivo; settings: for Decrease in the total macroscopic score versus untreated mice: 5 days after disease induction; for Decrease in the total macroscopic damage versus untreated mice: fed with GA
Method: Induction of cholitis in mice. TNBS-colitis was induced by rectal instillation of 2,4,6-trinitrobenzene sulfonic acid 5% (w/v), mixed with an equal volume of ethanol, into anesthetized mice (100 μl/mouse). Each treatment group included 6-12 mice. Mice that died before day 4 were considered as treatment casualties and were not taken into consideration.
Assessment of colitis. Weight changes and survival were monitored daily. […]
Macroscopic colonic scoring. Gross colonic damage was graded according to Reuter et al. (1996), using the combined values of the four standard macroscopic parameters: degree of colonic ulcerations (scale from 0—completely normal, to 10—most severe); intestinal and peritoneal adhesions (0 to 2); diarrhea (0 to 1); and thickness (0 to 1). The total score is the arithmetic sum of the four scores. The evaluation was performed in a blind procedure.
Microscopic scoring. Proximal, medial, and distal portions of colon were fixed in 10% phosphate-buffered formalin. Paraffin-embedded sections were stained with hematoxylin and eosin. The degree of histological damage and inflammation was graded according to Elson et al. (1996) using the combined values of the four microscopic parameters: extent (scale from 0—completely normal, to 2—involving more than one segment); inflammation (0—none to 3—severe); damage (0 to 3—severe transmural); and regeneration (0—complete re-eptihelization to 3—none). The total score is the arithmetic sum of the four scores. The evaluation was performed in a blind procedure.
Oral treatment—250 μg/day in PBS, fed by gastric intubation with an 18-gauge stainless steel feeding needle. Unless otherwise stated, feedings were performed on days-7, -5, -3, -1, 0, 2, 4 and 6, relative to the day of TNBS instillation. […]
To explore whether the beneficial effect of GA on TNBS-induced colitis is restricted to oral administration in the BALB/c strain or represents a more general effect, we studied the ability of GA administered by different routes and dosages to inhibit TNBS-induced colitis in two additional strains of mice.

DSS-induced colitis = assay: Dextran sulfate sodium (DSS)-induced colitis in C57BL/6 mice; format: in vivo; settings: GA 2.5 mg/day SC daily, by day 7 after DSS feeding, preliminary experiment
Method: Feeding mice for several days with dextran sulfate sodium (DSS) polymers in the drinking water induces an acute colitis with bloody diarrhea, histological damage, and inflammation (Wirtz and Neurath, 2000).
Female C57BL/6, 7 weeks old mice, were fed with 2.5% DSS solution in the drinking water for 7 days. GA was administered subcutaneously by daily injections—2.5 mg/day, in PBS, starting either 7 days before or in the same day of DSS feeding.

[1] = tested on: TGF-β secretion by spleen and MLN cells; assay: TGF-β secretion by spleen and MLN cells (ELISA); format: cell-based; settings: colitis-induced BALB/c mice treated with GA; anti-CD3 stimulation
Method: FIGS. 6A-6B show the effect of GA treatment on TGF-β secretion by lymphocytes of TNBS-induced BALB/c mice. Cells of spleen or mesenteric lymph nodes (MLN) from normal mice, colitis-induced mice, and colitis-induced mice treated with GA were cultured either with GA (50 μg/ml) (FIG. 6A) or immobilized anti-CD3 (5 μg/ml) (FIG. 6B). After 72 hours, supernatants from six culture wells were pooled and TGF-β was measured by ELISA in duplicates. Results are expressed as TGF-β concentration (pg/ml±1 SD) and represent one of two similar experiments, using pooled cells from 3-5 mice in each group. # Indicates significant decrease in TGF-β in colitic mice in comparison to normal mice. * Indicates significant increase in TGF-β induced by GA treatment in comparison to untreated colitis induced mice.
Reactivity assays. Spleens and mesenteric lymph nodes (MLN) cells (0.5×10^6 cell/well) were cultured with either GA (50 μg/ml), colon extract (200 μg/ml), immobilized anti-CD3 (5 μg/ml), or PBS control, in a final volume of 250 μl/well (6 wells for each antigen). For proliferation assay, cells were cultured in RPMI 1640 with 10% FCS, pulsed with 1 μCi of [3H] thymidine after 48 h incubation, and harvested 12 h later. […]

[2] = scoring 5 days after disease induction, GA injected daily (from day −7), 2.5 mg/mouse SC
[3] = scoring 5 days after disease induction, GA injected daily (from day −14), 2.5 mg/mouse SC
[4] = scoring 5 days after disease induction, GA injected once day −14, 5 mg/mouse SC in ICFA
[5] = scoring 5 days after disease induction, GA oral every other day (from day −7), 0.25 mg, 8 feedings
[6] = scoring 11 days after disease induction, GA injected daily (from day −7), 2.5 mg/mouse SC
[7] = scoring 11 days after disease induction, GA injected daily (from day −14), 2.5 mg/mouse SC
[8] = scoring 11 days after disease induction, GA injected once day −14, 5 mg/mouse SC in ICFA
[9] = scoring 11 days after disease induction, GA oral every other day (from day −7), 0.25 mg, 8 feedings

glatiramer acetate [GA] was tested, and the “Decrease in the total macroscopic score versus untreated mice” value (TNBS-induced colitis; GA daily injections from day −7) was 3.5 fold, the “Decrease in the total macroscopic score versus untreated mice” value (TNBS-induced colitis; GA daily injections from day −14) was 4.6 fold and the Complete weight restoration (TNBS-induced colitis; GA injected daily (from day −7)) was at most 6 days. For the same substance, the “Weight loss (of original weight)” value (TNBS-induced colitis; GA injected daily (from day −7), 1 day after induction) was 4%, the Mortality (TNBS-induced colitis; daily injection of GA (starting both 7 and 14 days before disease induction)) was “completely prevented mortality” and the “Reduction in the histological score” value (TNBS-induced colitis; daily injections (starting either 7 or 14 days before disease induction)) was 6.6 fold. The “Inhibition of weight loss caused by TNBS colitis” value (TNBS-induced colitis; daily-injected mice) was “major significant inhibition of weight loss”, the “Decrease in the total macroscopic damage versus untreated mice” value (TNBS-induced colitis; observed 5 days after TNBS inoculation) was 1.8 fold and the “Decrease in the total macroscopic damage versus untreated mice” value (TNBS-induced colitis; observed 11 days after TNBS inoculation) was 1.7 fold. For the same substance, the “Reduction in the histological score” value (TNBS-induced colitis; oral treatment) was 1.8 fold, the Mortality rate (TNBS-induced colitis; oral treatment with GA, by day 8) was 30% and the “Inhibition of weight loss caused by TNBS colitis” value (TNBS-induced colitis; orally-treated mice) was “modest, statistically insignificant, inhibition of weight loss”. For the same substance, the “Macroscopic scoring of colon damage: Adhesion (max 2)” value (“Macroscopic scoring … (max 2)” below) (TNBS-induced colitis; [2]) was 0.8, the “Macroscopic scoring of colon damage: Diarrhea (max 1)” value (TNBS-induced colitis; [2]) was 0.4 and the “Macroscopic scoring of colon damage: Thickness (max 1)” value (TNBS-induced colitis; [2]) was 0.1. For the same substance, the “Macroscopic scoring of colon damage: Total Score (max 14)” value (“Macroscopic scoring … (max 14)” below) (TNBS-induced colitis; [2]) was 2.7*, the “Macroscopic scoring of colon damage: Ulceration (max 10)” value (“Macroscopic scoring … (max 10)” below) (TNBS-induced colitis; [2]) was 1.4 and the “Macroscopic scoring … (max 2)” value (TNBS-induced colitis; [3]) was 0.4. The “Macroscopic scoring of colon damage: Diarrhea (max 1)” value (TNBS-induced colitis; [3]) was 0.2, the “Macroscopic scoring of colon damage: Thickness (max 1)” value (TNBS-induced colitis; [3]) was 0.1 and the “Macroscopic scoring … (max 14)” value (TNBS-induced colitis; [3]) was 2.1*. For the same substance, the “Macroscopic scoring … (max 10)” value (TNBS-induced colitis; [3]) was 1.4, the “Macroscopic scoring … (max 2)” value (TNBS-induced colitis; [4]) was 1.4 and the “Macroscopic scoring of colon damage: Diarrhea (max 1)” value (TNBS-induced colitis; [4]) was 0.3. For the same substance, the “Macroscopic scoring of colon damage: Thickness (max 1)” value (TNBS-induced colitis; [4]) was 0.3, the “Macroscopic scoring … (max 14)” value (TNBS-induced colitis; [4]) was 6.4 and the “Macroscopic scoring … (max 10)” value (TNBS-induced colitis; [4]) was 4.4. For the same substance, the “Macroscopic scoring … (max 2)” value (TNBS-induced colitis; [5]) was 1.0, the “Macroscopic scoring of colon damage: Diarrhea (max 1)” value (TNBS-induced colitis; [5]) was 0.3 and the “Macroscopic scoring of colon damage: Thickness (max 1)” value (TNBS-induced colitis; [5]) was 0.3. For the same substance, the “Macroscopic scoring … (max 14)” value (TNBS-induced colitis; [5]) was 5.4, the “Macroscopic scoring … (max 10)” value (TNBS-induced colitis; [5]) was 3.8 and the “Macroscopic scoring … (max 2)” value (TNBS-induced colitis; [6]) was 0.0. For the same substance, the “Macroscopic scoring of colon damage: Diarrhea (max 1)” value (TNBS-induced colitis; [6]) was 0.0, the “Macroscopic scoring of colon damage: Thickness (max 1)” value (TNBS-induced colitis; [6]) was 0.0 and the “Macroscopic scoring … (max 10)” value (TNBS-induced colitis; [6]) was 0.1. The “Macroscopic scoring … (max 2)” value (TNBS-induced colitis; [7]) was 0.0, the “Macroscopic scoring of colon damage: Diarrhea (max 1)” value (TNBS-induced colitis; [7]) was 0.0 and the “Macroscopic scoring of colon damage: Thickness (max 1)” value (TNBS-induced colitis; [7]) was 0.0. For the same substance, the “Macroscopic scoring … (max 10)” value (TNBS-induced colitis; [7]) was 0.1, the “Macroscopic scoring … (max 2)” value (TNBS-induced colitis; [8]) was 1.0 and the “Macroscopic scoring of colon damage: Diarrhea (max 1)” value (TNBS-induced colitis; [8]) was 0.2. For the same substance, the “Macroscopic scoring of colon damage: Thickness (max 1)” value (TNBS-induced colitis; [8]) was 0.2, the “Macroscopic scoring … (max 14)” value (TNBS-induced colitis; [8]) was 3.7 and the “Macroscopic scoring … (max 10)” value (TNBS-induced colitis; [8]) was 2.3. For the same substance, the “Macroscopic scoring … (max 2)” value (TNBS-induced colitis; [9]) was 0.6, the “Macroscopic scoring of colon damage: Diarrhea (max 1)” value (TNBS-induced colitis; [9]) was 0.1 and the “Macroscopic scoring of colon damage: Thickness (max 1)” value (TNBS-induced colitis; [9]) was 0.2. The “Macroscopic scoring … (max 14)” value (TNBS-induced colitis; [9]) was 3.2, the “Macroscopic scoring … (max 10)” value (TNBS-induced colitis; [9]) was 2.3 and the “Effect on macroscopic scores versus untreated controls” value (TNBS-induced colitis; single injection of GA as a depot dose in ICFA) was “small and statistically insignificant”. The Maximum weight loss (DSS-induced colitis; injected from day 0) was 4%, the Maximum weight loss (DSS-induced colitis; injected from day −7) was 7% and the “TGF-β secretion in the MLN relative to the secretion of normal mice” value [1] was 2.2 folds.
